Here are results for 1 substance from publication PMC3946725 (Archives of toxicology, 2013).

In this data set the target is hERG cardiac potassium channel (Kv11.1) (Homo sapiens, UniProt Q12809). It is filed as cell-based. To be noted: hamster, cho cells.
hERG cardiac potassium channel (Kv11.1), sequence (Q12809 whole entry): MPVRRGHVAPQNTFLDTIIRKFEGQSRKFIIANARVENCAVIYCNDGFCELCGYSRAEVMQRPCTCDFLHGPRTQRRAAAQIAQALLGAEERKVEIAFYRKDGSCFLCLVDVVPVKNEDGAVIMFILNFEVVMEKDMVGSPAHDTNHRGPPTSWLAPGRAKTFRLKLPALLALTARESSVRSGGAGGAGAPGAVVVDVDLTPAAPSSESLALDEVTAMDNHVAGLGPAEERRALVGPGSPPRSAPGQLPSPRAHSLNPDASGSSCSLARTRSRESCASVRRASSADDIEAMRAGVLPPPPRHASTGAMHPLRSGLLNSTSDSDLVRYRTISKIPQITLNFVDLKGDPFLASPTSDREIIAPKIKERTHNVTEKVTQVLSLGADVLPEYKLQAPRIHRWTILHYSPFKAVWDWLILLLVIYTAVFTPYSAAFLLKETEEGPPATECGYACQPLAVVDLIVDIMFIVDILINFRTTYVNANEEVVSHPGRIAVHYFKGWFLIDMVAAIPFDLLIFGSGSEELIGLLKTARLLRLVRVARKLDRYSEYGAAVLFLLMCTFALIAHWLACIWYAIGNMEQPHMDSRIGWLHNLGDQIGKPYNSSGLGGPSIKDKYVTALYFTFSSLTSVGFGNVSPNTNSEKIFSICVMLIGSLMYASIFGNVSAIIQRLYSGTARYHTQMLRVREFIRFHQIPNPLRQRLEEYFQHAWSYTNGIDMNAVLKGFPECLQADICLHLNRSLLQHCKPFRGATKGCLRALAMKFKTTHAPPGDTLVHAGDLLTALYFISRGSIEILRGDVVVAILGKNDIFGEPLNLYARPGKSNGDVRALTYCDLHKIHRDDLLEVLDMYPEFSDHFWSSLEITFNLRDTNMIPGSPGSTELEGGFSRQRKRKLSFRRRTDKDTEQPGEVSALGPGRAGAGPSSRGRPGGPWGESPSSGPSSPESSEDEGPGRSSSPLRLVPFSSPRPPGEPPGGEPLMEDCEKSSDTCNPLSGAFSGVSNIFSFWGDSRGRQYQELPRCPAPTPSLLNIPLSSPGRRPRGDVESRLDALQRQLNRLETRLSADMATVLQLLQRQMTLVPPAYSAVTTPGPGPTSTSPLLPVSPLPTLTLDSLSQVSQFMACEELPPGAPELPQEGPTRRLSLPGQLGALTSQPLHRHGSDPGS

AZA-2: the IC50 (commonly the concentration at which inhibition is half-maximal) amounted to 2200 nM.
